Test [1] concerns bone marrow stromal cells (BMSCs) from patients of AML in the bone marrow suppression phase. The test is described as follows: BMSC proliferation or inhibition, CCK8 method, AML patients. It is filed as cell-based, human. How it is done: To explore the effect of TPA alone or combined rhG-CSF on bone marrow hematopoietic cells proliferation and colony formation ability which from patients of acute myeloid leukemia (AML) in the period of bone marrow suppression in vitro and to observe the effect of TPA on bone marrow stromal cells(BMSCs) proliferation or inhibition from patients of AML in the period of myelosuppression and the healthy persons.
• 1) Human bone marrow cells from the same AML patient after chemotherapy were cultured by methyl cellulose semi-solid culture medium. Groups: Blank, TPA (10 ng/ml), G-CSF (50 ng/ml), TPA (10 ng/ml)+GCSF (50 ng/ml). The experiments were repeated for 4 times. • 2) The stroma cells of bone marrow from the healthy human and the AML patient after chemotherapy were cultured by methyl cellulose semi-solid culture medium. Different TPA concentrations were added. Groups: Blank, TPA (0.1 ng/ml), TPA (1.0 ng/ml), TPA (5 ng/ml), TPA (10 ng/ml), TPA (20 ng/ml), TPA (30 ng/ml). • 3) Cultivation of BMSCs from healthy persons and patients of AML in the bone marrow suppression phase in vitro, added to TPA of different concentrations, 0.1 ng/ml, 1.0 ng/ml, 5 ng/ml, 10 ng/ml, 20 ng/ml, 30 ng/ml, and set up a control to detect cell proliferation or inhibition with CCK8 method. Results and Conclusion: • 1. […]

Test [2] relates to neutropenia and thrombocytopenia. The test is described as follows: Phase 2a study of phorbol ester in AML patients who receive induction chemotherapy. It is filed as in vivo, human. Particulars: AML patients after 3+7 induction; TPA 0.125 mg/m^2 IV with G-CSF 400 μg support; standard deviation of 5 days; usual 20±3 days. The method, then:
This is a single-arm, open label study. Ten (10) patients receive standard induction chemotherapy with idarubicin (12 mg/m2) or daunorubicin (60 mg/m2) on days 1, 2, 3 and Ara-C continuous (100-200 mg/m2/day) infusion on days 1-7. On Day 8 or 24 hours after completion of all scheduled Ara-C infusion, TPA is started at 0.125 mg/m^2 IV every two days, in addition to G-CSF (400 μg subcutaneously daily) support until absolute neutrophil count (ANC) above 1000/μL for two consecutive days.”
This study is designed to examine the efficacy of TPA as a supportive care agent to enhance bone marrow recovery in AML patients after induction chemotherapy. Study Objectives: • 1. Evaluate the safety and tolerability of TPA in AML patients after induction chemotherapy • 2. Evaluate preliminary efficacy in shortening of the duration of neutropenia and thrombocytopenia in AML patients after induction chemotherapy • 3. […] AML should be classified by FAB classification, and all subtypes are allowed and recorded during enrollment, except patients with M3 or acute promyelocytic leukemia. • 3. […]
Evaluation of neutropenia and thrombocytopenia after induction chemotherapy is done by daily hematological tests, including complete blood count and differential count. […] The duration of neutropenia and thrombocytopenia is assessed separately and the ANC and platelet counts should be plotted in a diagram for each patient. […]

On to `CCCCCCCCCCCCCC(=O)O[C@@H]1[C@@H](C)[C@@]2(O)[C@@H](C=C(CO)C[C@]3(O)C(=O)C(C)=C[C@@H]23)[C@@H]2C(C)(C)[C@]12OC(C)=O` [TPA, 12-O-tetradecanoylphorbol-13-acetate], for which, in test [1], the “best concentration of promoting proliferation of BMSCs” value is 5 ng/mL. The “Duration of neutropenia or thrombocytopenia” value in test [2] is 12 days.
